Experimental data taken from patent US20020151491A1, “Composition and method for treating the over-production of mucin in diseases such as otitis media using an inhibitor of MUC5AC” (priority 2000, published 2002).

Tested on: MUC5AC transcription
Test: MUC5AC promoter-luciferase reporter assay (pMUC5AC3.7luc) in human epithelial cells
Type: cell-based
Procedure: The luciferase assay was performed as follows: expression plasmids fp38α(AF) and fp38β(AF) were previously described in Shuto, et al. (2001) Proc. Natl, Acad. Sci. U.S.A. 98, pages 8774-9. The expression plasmids p110, p85α, Akt KD, and Akt WT were provided by D. Stokoe (University of California, San Francisco). The reporter construct MUC5AC contained 3.7-kb 5′-flanking region of the human MUC5AC mucin gene in a luciferase reporter vector pGL3 (Li, et al. 1998, J. Biol. Chem. 273, 68126820). Transient transfections of cells were performed in triplicate with Trans IT-LT1 (Panvera, Madison, WT) following the manufacturer's instructions. Forty-two hours after transfection, the cells were treated with NTHi for 4 h and then harvested for use in the luciferase assay. For experiments with inhibitors, HM3 cells stably transfected with MUC5AC-luciferase plasmid were pretreated with inhibitors for 1-2 h, then treated with NTHi for 4 h and harvested for luciferase assays. Luciferase assays were performed on a Monolight 3010 luminometer for 15 s (Analytical Luminescence, San Diego, Calif.). The NTHi-dependent fold induction was calculated relative to the luciferase light units obtained in the absence of NTHi treatment. The normalized luciferase activity was thus expressed as relative luciferase activity (fold induction).

Molecule | effect on NTHi-induced MUC5AC transcription (luciferase activity) (HM3 cells stably transfected with pMUC5AC3.7luc, pretreated with inhibitor 1-2 h, then NTHi SCF 4 h) | effect on NTHi-induced MUC5AC transcription in cells already pretreated with wortmannin (HM3 cells stably transfected with pMUC5AC3.7luc, wortmannin pretreatment first) | effect on MUC5AC transcription induced by LPS from S. typhimurium (LPS pretreated with various concentrations of polymyxin B 10 min at 4° C., HM3 pMUC5AC3.7luc cells, 4 h) | effect on MUC5AC transcription induced by NTHi soluble cytoplasmic fraction (SCF pretreated with various concentrations of polymyxin B for 10 min, HM3 pMUC5AC3.7luc cells)
C[S+]([O-])c1ccc(-c2nc(-c3ccncc3)c(-c3ccc(F)cc3)[nH]2)cc1 (stereo not shown) [SB203580] | inhibited MUC5AC induction in response to NTHi cytoplasmic proteins in a dose-dependent manner | still capable of inhibiting NTHi-induced MUC5AC transcription |  | 
Polymyxin B |  |  | significantly reduced MUC5AC transcription | no significant reduction in NTHi-induced MUC5AC transcription
